Consider six molecules from PMC3485633 (BMC Pharmacology, 2012).

What is called Ki is the dissociation constant of the complex between target and ligand, obtained from inhibition or displacement.

On the set-up of data set [1]: method as in PMID 11488257, PMID 22103329. The note with it: patients treated with these medications; cited from earlier work.
The next data set has as its target T1, 5HT2A receptor (Rattus norvegicus, UniProt P14842).
T1 construct: The prefrontal cortex, striatum and hypothalamus were homogenized in about 6 volumes of ice-cold buffer; from tissue; host or cells: rat prefrontal cortex membrane homogenate
Kind of data set: [3H]-Ketanserine radioligand binding assay, rat prefrontal cortex membrane homogenate. The arrangement: species or system Sprague Dawley rats. The settings on record: for pKi ratio 5HT2A/D2: ratio of pKi at 5HT2A to pKi at D2, rat tissue homogenate; for Ki: read-out: Ki ± SD 5HT2A.

For data set [2], the target named is T2, D2 receptor (Rattus norvegicus, UniProt P61169).
T2 construct: The prefrontal cortex, striatum and hypothalamus were homogenized in about 6 volumes of ice-cold buffer; from tissue; host or cells: rat striatum membrane homogenate
T2 sequence (P61169 whole entry): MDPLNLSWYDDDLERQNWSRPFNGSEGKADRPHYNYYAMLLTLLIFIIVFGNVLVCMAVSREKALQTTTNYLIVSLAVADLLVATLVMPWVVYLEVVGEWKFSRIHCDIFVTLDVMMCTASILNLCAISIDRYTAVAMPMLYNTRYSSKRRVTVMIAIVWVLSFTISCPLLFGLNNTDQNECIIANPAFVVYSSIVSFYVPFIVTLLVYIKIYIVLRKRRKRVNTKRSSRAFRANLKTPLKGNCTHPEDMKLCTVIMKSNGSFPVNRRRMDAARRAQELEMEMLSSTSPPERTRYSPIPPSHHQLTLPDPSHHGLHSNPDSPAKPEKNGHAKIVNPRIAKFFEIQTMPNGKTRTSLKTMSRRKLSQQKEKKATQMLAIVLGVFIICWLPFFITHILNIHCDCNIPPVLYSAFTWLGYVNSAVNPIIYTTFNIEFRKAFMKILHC
Kind of data set: [3H]-Spiperone radioligand binding assay, rat striatum membrane homogenate. The arrangement: species or system Sprague Dawley rats. The settings on record: read-out: Ki ± SD D2.

For another data set, the target named is T3, H1 receptor (Rattus norvegicus, UniProt P31390).
T3 construct: The prefrontal cortex, striatum and hypothalamus were homogenized in about 6 volumes of ice-cold buffer; from tissue; host or cells: rat hypothalamus membrane homogenate
T3 sequence (P31390 whole entry): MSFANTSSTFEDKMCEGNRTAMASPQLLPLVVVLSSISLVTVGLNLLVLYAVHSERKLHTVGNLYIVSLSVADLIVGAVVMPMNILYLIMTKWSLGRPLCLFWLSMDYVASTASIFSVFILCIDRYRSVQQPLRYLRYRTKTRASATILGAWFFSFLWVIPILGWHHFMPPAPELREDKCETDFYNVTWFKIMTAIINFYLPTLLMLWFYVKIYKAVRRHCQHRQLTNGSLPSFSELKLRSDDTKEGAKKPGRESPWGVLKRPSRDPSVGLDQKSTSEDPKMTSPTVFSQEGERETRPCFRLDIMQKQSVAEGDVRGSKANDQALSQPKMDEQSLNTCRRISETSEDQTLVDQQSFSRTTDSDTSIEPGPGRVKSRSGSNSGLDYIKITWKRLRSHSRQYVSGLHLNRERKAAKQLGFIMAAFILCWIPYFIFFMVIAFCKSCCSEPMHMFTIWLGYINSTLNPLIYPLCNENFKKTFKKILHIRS
Kind of data set: [3H]-Pyrilamine radioligand binding assay, rat hypothalamus membrane homogenate. On the set-up: species or system Sprague Dawley rats. The note with it: read-out: Ki ± SD H1.

Data set [3] has as its target D2 receptor. The note with it: read-out: Ki D2 receptor; cited from earlier work.

T1 sequence (P14842 whole entry): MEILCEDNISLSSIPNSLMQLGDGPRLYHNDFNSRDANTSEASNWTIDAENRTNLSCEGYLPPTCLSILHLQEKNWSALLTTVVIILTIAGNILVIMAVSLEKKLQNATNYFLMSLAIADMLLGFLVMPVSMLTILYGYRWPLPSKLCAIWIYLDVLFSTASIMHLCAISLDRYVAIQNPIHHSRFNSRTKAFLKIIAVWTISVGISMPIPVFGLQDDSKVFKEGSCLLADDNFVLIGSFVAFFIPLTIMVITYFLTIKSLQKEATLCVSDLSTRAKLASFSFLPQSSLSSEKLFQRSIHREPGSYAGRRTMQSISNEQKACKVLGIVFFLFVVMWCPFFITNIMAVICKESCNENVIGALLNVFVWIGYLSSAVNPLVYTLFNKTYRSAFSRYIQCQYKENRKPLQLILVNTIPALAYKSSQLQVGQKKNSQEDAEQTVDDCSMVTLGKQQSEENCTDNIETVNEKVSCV

For `Clc1ccc2c(c1)C(N1CCNCC1)=Nc1ccccc1O2` [amoxapine], the “weight change in treated patients” value in data set [1] is recorded as “neither weight gain nor weight loss”.

In the case of `CCc1cc2c(s1)Nc1ccccc1N=C2N1CCCN(C)CC1` [Compound 8b, 2-ethyl-4-(4′-methyl-1′,4′-diazepan-1′-yl)-10H-benzo[b]thieno[2,3-e] [1,4]diazepine], the “pKi ratio 5HT2A/D2” value on 5HT2A receptor is given as 1.16. For the same molecule, the Ki at 5HT2A receptor was found to be 81.2 ± 2.43 nM; at D2 receptor [2], 791 ± 83.2 nM; at H1 receptor, 13.6 ± 2.68 nM.

For the molecule `CN1CCN(C2=Nc3ccccc3Oc3ccc(Cl)cc32)CC1` [loxapine], the “weight change in treated patients” value in data set [1] was “neither weight gain nor weight loss”.

With `CCc1cc2c(s1)Nc1ccccc1N=C2N1CCN(C)CC1` [Compound 8c, 2-ethyl-4-(4′-methylpiperazin-1′-yl)-10Hbenzo[b]thieno[2,3-e][1,4]diazepine], on 5HT2A receptor, the “pKi ratio 5HT2A/D2” value was 1.16. The Ki on 5HT2A receptor is 3.7 ± 0.74 nM; at D2 receptor [2], 54.5 ± 12.1 nM; on H1 receptor, 1.95 ± 0.33 nM.

Regarding `CCN1CCC[C@H]1CNC(=O)c1c(OC)ccc(Br)c1OC` [remoxipride], the inhibition constant (Ki) on D2 receptor [3] was 800 nM.

As to `Cc1cc2c(s1)Nc1ccccc1N=C2N1CCCN(C)CC1` [Compound 8a, 2-methyl-4-(4′-methyl-1′,4′-diazepan-1′-yl)-10H-benzo[b]thieno[2,3-e] [1,4]diazepine], the Ki at 5HT2A receptor was 787 ± 29.8 nM; on D2 receptor [2], 3940 ± 437 nM; at H1 receptor, 33.5 ± 7.39 nM.
